Test results: patent publication US9102688B2, “Sulfonaminoquinoline hepcidin antagonists” (Vifor (International) AG, priority 2011, dated 2015)

Target: T1, human ferroportin (Homo sapiens, UniProt Q9NP59)
T1 construct: expressed in transfected cells
T1 sequence (Q9NP59 1-571): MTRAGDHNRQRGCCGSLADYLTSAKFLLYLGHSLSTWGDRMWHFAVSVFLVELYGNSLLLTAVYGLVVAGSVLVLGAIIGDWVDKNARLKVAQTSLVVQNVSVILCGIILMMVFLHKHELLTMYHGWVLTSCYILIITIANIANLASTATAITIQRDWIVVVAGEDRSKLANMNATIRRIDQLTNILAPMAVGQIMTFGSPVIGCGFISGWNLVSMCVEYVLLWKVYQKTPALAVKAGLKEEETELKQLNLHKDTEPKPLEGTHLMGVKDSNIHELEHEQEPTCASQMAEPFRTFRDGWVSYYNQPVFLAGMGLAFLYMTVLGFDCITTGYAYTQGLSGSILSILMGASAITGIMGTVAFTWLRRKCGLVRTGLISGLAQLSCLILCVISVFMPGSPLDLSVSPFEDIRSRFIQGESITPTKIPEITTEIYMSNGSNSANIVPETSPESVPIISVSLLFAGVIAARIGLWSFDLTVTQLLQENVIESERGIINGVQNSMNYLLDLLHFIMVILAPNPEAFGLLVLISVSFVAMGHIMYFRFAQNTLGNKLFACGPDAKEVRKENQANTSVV
Assay: ferroportin internalization assay (inhibition of hepcidin-induced internalization of Fpn)
Assay type: cell-based
Conditions: MDCK-FPN-HaloTag cells, 100 nM hepcidin, overnight incubation; concentration range from 0.04 to 40 μM
Description: The hepcidin-antagonistic action of the sulfonaminoquinoline compounds of the present invention was determined by means of the “ferroportin internalization assay” described in the following.
Organic compounds of low molecular weight which counteract the biological actions of hepcidin on its receptor, the iron exporter ferroportin (Fpn), were identified on the basis of their ability to inhibit hepcidin-induced internalization of Fpn in living cells. For this purpose, a stable cell line (Madin-Darby canine kidney, MDCK) was produced which constitutively expresses human ferroportin fused recombinantly at its C terminus with a fluorescent reporter protein (HaloTag®, Promega Corp.). The internalization of Fpn was monitored by labelling these cells with fluorescent ligands (HaloTag®-TMR, tetramethylrhodamine) which join covalently on to the HaloTag reporter gene fused with the Fpn. […] Optimized image analysis algorithms were used to ascertain the cell surface and to quantify the corresponding membrane fluorescence associated with the Fpn-HaloTag fusion protein. This assay allows a quantitative image-based analysis in order to quickly evaluate compounds which can block hepcidin-induced internalization of Fpn. This assay is a direct in vitro pendant of the in vivo action mechanism proposed for medicament candidates and is therefore suitable as an initial assay with a high throughput for identifying compounds which counteract the action of hepcidin on its receptor ferroportin.
• 7,500 cells per well (MDCK-FPN-HaloTag) were transinoculated in 50 μl of DMEM medium (Dulbeccos Modified Eagle Medium with 10% foetal bovine serum (FBS), which contained 1% penicillin, 1% streptomycin and 450 μg/ml of G-418) in microtitre plates with 384 wells (384 Cell carrier plates, Perkin Elmer, cat. no. 6007430), followed by incubation overnight at 37° C./5% CO2. • The volume of the medium was reduced to 10 μl, and 10 μl of 5 μM HaloTag-TMR ligands (Promega, cat. no. G 8251) were added in DMEM medium in order to stain the Fpn-HaloTag fusion protein. • 15 min incubation at 37° C./5% CO2 • The HaloTag-TMR ligand was removed and the cells were washed with fresh DMEM medium and the volume was reduced to 20 μl of DMEM medium. • 3 μl per well of a solution of the test compound (dissolved DMSO) were added ([…]). • 7 μl of […] hepcidin (Peptides International, cat. no. PLP-4392-s, 100 μM stock solution diluted in water in DMEM medium) were added per well up to a final hepcidin concentration of 100 nM. • The cells were incubated overnight at 37° C./5% CO2. • The cells were fixed by adding paraformaldehyde (PFA, Electron Microscopy Sciences, cat. no. 15710-S) directly to the cells up to a final concentration of 4%, followed by incubation at room temperature for 15-20 minutes. • The PFA solution was removed and the cells were washed with PBS (phosphate-buffered saline solution), in each case 30 μl remaining in the plate. • 20 μl of Draq5 (Biostatus, cat. no. DR 51000) were added up to a final concentration of 2.5 μM in order to stain the cell nuclei, and the plates were sealed with a foil plate seal. • The plates were analysed with the Opera Plate Imager (Opera Confocal Plate Imager, Perkin Elmer) with 7 images per well; 440 ms exposure time per image, […] focal point height.

Structure (SMILES)	IC50
CN1C(c2ccc(F)c(Cl)c2)c2ccc3cccnc3c2NS1(=O)=O (stereo not shown) [Example 391, 1-(3-Chloro-4-fluoro-phenyl)-2-methyl-1,4-dihydro-2H-3-thia-2,4,5-triaza-phenanthrene 3,3-dioxide]	3700 nM
NC(=O)c1ccnc2c(NS(=O)(=O)c3ccccc3)cccc12 [Example 539, 8-Benzenesulfonylamino-quinoline-4-carboxylic acid amide]	10400 nM
O=S(=O)(Nc1cc(OC(F)(F)F)cc2cccnc12)c1ccccc1 [Example 92, N-(6-Trifluoromethoxy-quinolin-8-yl)-benzenesulfonamide]	9000 nM
O=S1(=O)Nc2c(cc(N3CCCCC3)c3cccnc23)-c2ccccc21 [Example 551, 12-Piperidin-1-yl-5H-6-thia-4,5-diaza-chrysene 6,6-dioxide]	1560 nM
O=S(=O)(Nc1cccc2cccnc12)c1ccccc1C(F)(F)F [Example 43, N-Quinolin-8-yl-2-trifluoromethyl-benzenesulfonamide]	419 nM
O=C(c1ccc2c(c1)-c1cc(Cl)c3cccnc3c1NS2(=O)=O)N1CCOCC1 [Example 527, (12-Chloro-6,6-dioxo-5,6-dihydro-6λ*6*-thia-4,5-diaza-chrysen-9-yl)-morpholin-4-yl-methanone]	2740 nM
Cc1ccc(S(=O)(=O)Nc2cccc3cccnc23)cc1 [Example 9, 4-Methyl-N-quinolin-8-yl-benzenesulfonamide]	49900 nM
CN(C)CCNC(=O)c1cc(C2c3ccc4cccnc4c3NS(=O)(=O)N2C)ccc1F (stereo not shown) [Example 429, N-(2-Dimethylamino-ethyl)-2-fluoro-5-(2-methyl-3,3-dioxo-1,2,3,4-tetrahydro-3λ*6*-thia-2,4,5-triaza-phenanthren-1-yl)-benzamide]	7460 nM
Cc1ccc(S(=O)(=O)Nc2ccc(Cl)c3cccnc23)c(N)c1 [Example 79, 2-Amino-N-(5-chloro-quinolin-8-yl)-4-methyl-benzenesulfonamide]	1220 nM
N#Cc1ccc(S(=O)(=O)Nc2cc(OC(F)(F)F)cc3cccnc23)cn1 [Example 238, 6-Cyano-pyridine-3-sulfonic acid (6-trifluoromethoxy-quinolin-8-yl)-amide]	2110 nM
CC(=O)Nc1ccccc1S(=O)(=O)Nc1cccc2cccnc12 [Example 50, N-[2-(Quinolin-8-ylsulfamoyl)-phenyl]-acetamide]	1370 nM
O=S(=O)(Nc1cc(F)cc2cccnc12)c1ccc(Cl)cc1F [Example 95, 4-Chloro-2-fluoro-N-(6-fluoro-quinolin-8-yl)-benzenesulfonamide]	690 nM
O=S1(=O)Nc2c(cc(Cl)c3cccnc23)-c2cc(C(F)(F)F)ccc21 [Example 334, 12-Chloro-9-trifluoromethyl-5H-6-thia-4,5-diaza-chrysene 6,6-dioxide]	6250 nM
CN1C(c2ccc(F)cc2)c2ccc3cccnc3c2NS1(=O)=O (stereo not shown) [Example 382, 1-(4-Fluoro-phenyl)-2-methyl-1,4-dihydro-2H-3-thia-2,4,5-triaza-phenanthrene 3,3-dioxide]	340 nM
N#Cc1ccc(S(=O)(=O)Nc2cc(F)cc3cccnc23)cn1 [Example 239, 6-Cyano-pyridine-3-sulfonic acid (6-fluoro-quinolin-8-yl)-amide]	3750 nM
CN1Cc2ccc3cccnc3c2NS1(=O)=O [Example 405, 2-Methyl-1,4-dihydro-2H-3-thia-2,4,5-triaza-phenanthrene 3,3-dioxide]	6500 nM
O=S(=O)(Nc1cccc2cccnc12)c1nccs1 [Example 231, Thiazole-2-sulfonic acid quinolin-8-ylamide]	4580 nM

Structure (SMILES)	IC50
COc1cccc(S(=O)(=O)Nc2cccc3cccnc23)c1 [Example 21, 3-Methoxy-N-quinolin-8-yl-benzenesulfonamide]	1500 nM
O=S(=O)(Nc1cccc2cccnc12)c1cccc(Cl)c1F [Example 62, 3-Chloro-2-fluoro-N-quinolin-8-yl-benzenesulfonamide]	1710 nM
O=S(=O)(Nc1cccc2cccnc12)Oc1ccccc1 [Example 70, Quinolin-8-yl-sulfamic acid phenyl ester]	3250 nM
O=S1(=O)Nc2c(ccc3cccnc23)-c2cc(OC(F)(F)F)ccc21 [Example 333, 9-Trifluoromethoxy-5H-6-thia-4,5-diaza-chrysene 6,6-dioxide]	1170 nM
Cc1ccc2c(c1)-c1ccc3cccnc3c1NS2(=O)=O [Example 327, 9-Methyl-5H-6-thia-4,5-diaza-chrysene 6,6-dioxide]	3200 nM
Cc1ccc2c(c1)S(=O)(=O)Nc1c-2ccc2cccnc12 [Example 329, 8-Methyl-5H-6-thia-4,5-diaza-chrysene 6,6-dioxide]	360 nM
CC1c2ccc3cccnc3c2NS(=O)(=O)N1C (stereo not shown) [Example 413, 1,2-Dimethyl-1,4-dihydro-2H-3-thia-2,4,5-triaza-phenanthrene 3,3-dioxide]	4690 nM
CN1C(c2ccc(F)cn2)c2ccc3cccnc3c2NS1(=O)=O (stereo not shown) [Example 388, 1-(5-Fluoro-pyridin-2-yl)-2-methyl-1,4-dihydro-2H-3-thia-2,4,5-triaza-phenanthrene 3,3-dioxide]	1570 nM
O=S(=O)(Nc1cccc2cccnc12)c1cccc(OC(F)(F)F)c1 [Example 38, N-Quinolin-8-yl-3-trifluoromethoxy-benzenesulfonamide]	1200 nM
O=S(=O)(Nc1cccc2cccnc12)c1ccccn1 [Example 85, Pyridine-2-sulfonic acid quinolin-8-ylamide]	1890 nM
O=S1(=O)Nc2c(ccc3c(-n4cccn4)ccnc23)-c2ccccc21 [Example 494, 1-Pyrazol-1-yl-5H-6-thia-4,5-diaza-chrysene 6,6-dioxide]	3530 nM
O=S(=O)(Nc1cccc2cccnc12)c1cncc(C(F)(F)F)c1 [Example 229, 5-Trifluoromethyl-pyridine-3-sulfonic acid quinolin-8-ylamide]	3980 nM
O=S1(=O)NCc2ccc3cccnc3c2N1 [Example 114, 1,4-Dihydro-2H-3-thia-2,4,5-triaza-phenanthrene 3,3-dioxide]	39500 nM
COc1cc(NS(=O)(=O)c2ccc(C(F)(F)F)cc2N)c2ncccc2c1 [Example 65, 2-Amino-N-(6-methoxy-quinolin-8-yl)-4-trifluoromethyl-benzenesulfonamide]	1000 nM
O=C(Nc1ccccc1S(=O)(=O)Nc1cccc2cccnc12)C(F)(F)F [Example 49, 2,2,2-Trifluoro-N-[2-(quinolin-8-ylsulfamoyl)-phenyl]-acetamide]	307 nM
CN1C(c2ccc(F)c(C(=O)N3CCOCC3)c2)c2ccc3cccnc3c2NS1(=O)=O (stereo not shown) [Example 428, [2-Fluoro-5-(2-methyl-3,3-dioxo-1,2,3,4-tetrahydro-3λ*6*-thia-2,4,5-triaza-phenanthren-1-yl)-phenyl]-morpholin-4-yl-methanone]	2620 nM
CC(C)C(=O)Nc1ccccc1S(=O)(=O)Nc1cccc2cccnc12 [Example 48, N-[2-(Quinolin-8-ylsulfamoyl)-phenyl]-isobutyramide]	24600 nM
